{"source": "patent US7087762B2", "about": "“Long-lasting antimicrobial reaction product of allantoin and formaldehyde containing a low level of free formaldehyde” (ISP Investments Inc., priority 2002, dated 2006)", "key": {"A. Niger ATCC 9642": {"tested_on": "A. Niger ATCC 9642", "assay": "Activity against yeast and mold, 0.3% test solutions", "format": "cell-based, Aspergillus niger", "design": "key: + Growth; − No Growth", "from_the_text": "Activity against yeast and mold:"}, "[1]": {"tested_on": "SA (Staphylococcus aureus)", "assay": "Preservative challenge test, nonionic emulsion", "format": "cell-based", "method": "A typical cosmetic emulsion was prepared for microbiological challenge testing and predetermined admixtures of a methylol compound and IPBC were added at various use levels. The emulsion thus prepared had the following composition:\nThe challenge tests were carried out using the following microorganisms: SA, ECOLI, PSA, PC, AN and CAN, in this manner. 50 g aliquots of the test emulsion containing various amounts of the preservative admixture were inoculated with approximately 10^7–10^8 of the challenge organisms. The test samples then were stirred to disperse the challenge inoculum. The samples were incubated and assayed at 48 hours, 7, 14, 21 and 28 days. The assays were performed on 1 g of the test sample by serially diluting 10^1 to 10^6 of the original concentration. The plating medium for bacteria was Letheen agar and for fungi it was low pH Mycophil agar with Tween 20. Each plated sample was incubated for 48 hours at 37° C. for bacteria, 5 days at 25° C. for mold, and 3 days at 25° C. for fungi. After incubation, readings of the number of colonies per milliliter (cfu/ml) were made. At 21 days the test product was reinoculated with half of the original inoculum."}}, "data": [{"smiles": "O=C1C(N(CO)C(=O)NCO)N(CO)C(=O)N1CO", "note": "(centres unmarked) [Germall II]", "values": [{"measurement": "Growth, A. Niger ATCC 9642(for 3 Days)", "setting": "A. Niger ATCC 9642", "value": "−"}, {"measurement": "cfu/ml, 48 hrs", "setting": "[1]; 2000 ppm", "value": "<10", "unit": "cfu/ml"}, {"measurement": "cfu/ml, 7 days", "setting": "[1]; 2000 ppm", "value": "<10", "unit": "cfu/ml"}, {"measurement": "cfu/ml, 14 days", "setting": "[1]; 2000 ppm", "value": "<10", "unit": "cfu/ml"}, {"measurement": "cfu/ml, 21 days", "setting": "[1]; 2000 ppm", "value": "<10", "unit": "cfu/ml"}, {"measurement": "cfu/ml, 28 days", "setting": "[1]; 2000 ppm", "value": "<10", "unit": "cfu/ml"}, {"measurement": "cfu/ml, 48 hrs", "setting": "[1]; 4000 ppm", "value": "<10", "unit": "cfu/ml"}, {"measurement": "cfu/ml, 7 days", "setting": "[1]; 4000 ppm", "value": "<10", "unit": "cfu/ml"}, {"measurement": "cfu/ml, 14 days", "setting": "[1]; 4000 ppm", "value": "<10", "unit": "cfu/ml"}, {"measurement": "cfu/ml, 21 days", "setting": "[1]; 4000 ppm", "value": "<10", "unit": "cfu/ml"}, {"measurement": "cfu/ml, 28 days", "setting": "[1]; 4000 ppm", "value": "<10", "unit": "cfu/ml"}]}]}
